We go through 89 compounds from a melting point compilation (Tetko et al.; mined from patent text by program, amines drawn as free bases though some values may be those of a salt).

Molecules are shown by their SMILES.

`CCOC(=O)c1cc(-c2cn(Cc3ccccc3C#N)c(=O)n2-c2ccc(F)cc2)ccn1` showed a melting point of 164 °C.

Take `CCOC(=O)CC(NC(=O)c1ccccc1)C(=O)c1ccsc1` (centres undefined): the melting point lay in the range of 62 to 63 °C.

For `c1cc(-c2ccc(N3CCNCC3)nc2)nc(Nc2ccc3[nH]nnc3c2)n1`, the melting point lay within 280 to 283 °C.

In the case of `CN1CC(CNN)CC2c3cccc4c3c(cn4C)CC21` (centres undefined), the melting point fell in the range of 102 to 103 °C.

Take `CC1CCN(c2ccccc2C(=O)c2ccccc2)CC1`: the melting point amounted to 82 °C.

In the case of `COC(=O)c1cccc(-c2ncc(OCCCN(C)C)cn2)c1`, the melting point is 66 °C.

Regarding `C#CCN1CCCc2ccc(OC(=O)Nc3ccc(Cl)cc3)cc21`, the melting point stood at 160 °C.

`Oc1cncc(Cl)c1CCCOc1cccnc1Oc1cccc(Cl)c1` had a melting point of 95 to 96 °C.

`CCCCOCCOc1ccc(-c2ccc3c(c2)C=C(C(=O)Nc2ccc(CSc4nnc(C)o4)cc2)CCN3CC(C)C)cc1` yielded a melting point of 107 to 109 °C.

`CNCC1Cc2cc(-c3ccccc3)cc(-c3cccc(F)c3)c2O1` (centres undefined) showed a melting point greater than 250 °C.

In turn, `Cc1c(C)c2c(c(C)c1N)CC(C)(CSc1ccncc1)O2` (centres undefined) returned a melting point of 96 to 97 °C.

In turn, `COc1ccc(C=Cc2ccc([N+](=O)[O-])cc2)cc1C` showed a melting point of 109 to 111 °C.

Regarding `CN1CC(=O)Nc2ccccc2C1`, the melting point lay in the range of 113 to 114 °C.

The compound `BrCC=C1c2ccccc2C=Cc2ccccc21` registered a melting point of 87.5 to 89.5 °C.

On to `CC1(c2ccccc2)C(=O)c2c(cc(O)c(Cl)c2Cl)C1c1ccccc1` (centres undefined), for which the melting point fell in the range of 238 to 244 °C.

Regarding `CC(C(=O)O)N1CCC(C)(CS)C1=O` (centres undefined), the melting point was 132 to 133 °C.

In turn, `CCCc1c(OCCCCCCC#N)ccc(C(C)=O)c1O` displayed a melting point of 64 to 66 °C.

For the compound `CCCc1ccc(NC2CCN(c3ccc(OC[C@@]4(C)Cn5cc([N+](=O)[O-])nc5O4)cc3)CC2)cc1`, the melting point lay within 222 to 223 °C.

For the compound `CCOC(=O)c1cnc(-c2cc3cccc(NS(=O)(=O)c4cccs4)c3n2COC)s1`, the melting point was in the range of 133 to 134 °C.

`COc1ccc(N2CCN(Cc3c[nH]c4ncccc34)CC2)cc1` returned a melting point of 213 to 214 °C.

Compound `CN(C)CCc1cccc(OCCCN2C(=O)c3ccccc3C2=O)c1` returned a melting point of 59 to 60 °C.

The compound `O=C(CBr)CCc1ccc(Cl)cc1` registered a melting point of 51 °C.

The compound `CN(C)c1cc(NC(=O)c2ccccc2-c2ccc(C(F)(F)F)cc2)cnc1OCCCC1(C(=O)NCC(F)(F)F)c2ccccc2-c2ccccc21` displayed a melting point of 140 to 141 °C.

As to `COc1cc(CO)ccc1C12CC3CC(CC(C3)C1)C2`, the melting point was in the range of 120 to 121 °C.

`O=C(O)/C=C\C(=O)NCC(=O)N1c2ccccc2N(Cc2ccccc2)C(=O)[C@H]2CCC[C@H]21` (relative stereo) showed a melting point of 207 to 209 °C.

For `O=C1Nc2cc(C(F)(F)F)ccc2C1c1ncnc2c1cnn2C1CCCCC1` (centres undefined), the melting point was 277 to 280 °C.

Take `O=C(O)c1nc2c(=O)[nH]c3cc(C(F)(F)F)ccc3n2c1CNc1ccc2c(c1)OCO2`: the melting point was greater than 250 °C.

Consider `COC(=O)Cc1cccc(CC(=O)OC)c1[N+](=O)[O-]`, for which the melting point was 144 to 145 °C.

In turn, `CS(=O)(=O)C1C(O)C(CO)OC1n1ccc(=O)[nH]c1=O` (centres undefined) yielded a melting point of 227 to 228 °C.

In turn, `N#Cc1cnc2cc3c(cc2c1Nc1ccc(F)c(Cl)c1)NCCO3` yielded a melting point of 244 to 245 °C.

The compound `Nc1ccc2[nH]nc(-c3ccccc3)c2c1` returned a melting point of 104 °C.

Consider `C[C@@H](OS(C)(=O)=O)C(=O)N1C(=O)N(C)C[C@H]1C(=O)OCc1ccccc1`, for which the melting point lay within 98 to 102 °C.

For `Cc1cc(Br)ccc1C(=O)NCc1ccccn1`, the melting point was in the range of 86 to 87.5 °C.

Regarding `CCCCc1ccc(CCc2cc3c(s2)-n2c(C)nnc2CN=C3c2ccccc2Cl)cc1`, the melting point was in the range of 119 to 121 °C.

Take `CN(C)C(=O)c1nc(-c2cccnc2)nc2c1c1ccc(Cl)cc1n2C`: the melting point lay in the range of 283 to 284 °C.

`CC(C)(C)c1cc(C=C2Sc3ccccc3N(CP(=O)(O)O)C2=O)cc(C(C)(C)C)c1O` came in with a melting point of 232 to 233 °C.

Compound `Cn1nnc(-c2ccc(OCC(O)CNCCOc3ccc(O)c(C(N)=O)c3)cc2)n1` (centres undefined) came in with a melting point of 174 to 175 °C.

Take `O=C(c1ccc(Cl)cc1)C(CC1OCCO1)Sc1ccccc1` (centres undefined): the melting point was 74 to 75 °C.

On to `CCC(=O)c1c(-c2ccncc2)[nH]c(-c2ccncc2)c1C`, for which the melting point lay in the range of 237 to 238 °C.

In turn, `COC(=O)Cn1c(C(=O)Nc2nc(-c3cc(OC)c(Cl)cc3OC)c(CCC3CCCCC3)s2)c(C)c2cc(C)ccc21` gave a melting point of 166 to 168 °C.

In turn, `O=C1CC(c2ccccc2)Oc2cc(OCCn3ccnc3)ccc21` (centres undefined) gave a melting point of 139 to 140 °C.

As for `CC(C)(C)OC(=O)CS(=O)c1cccc(-c2nc(=O)c3ccccc3s2)n1` (centres undefined), the melting point came to 159 °C.

For the compound `CC(O)=C(C#N)C(=O)Oc1cccc(Cl)c1Cl`, the melting point was in the range of 142 to 146 °C.

On to `CCOC(=O)C(=O)Nc1cc([N+](=O)[O-])c2ccccc2c1NC(=O)C(=O)OCC`, for which the melting point lay within 183 to 184 °C.

The compound `CC(OS(=O)(=O)C(F)(F)F)=C(C(=O)OCc1ccccc1)N1C(=O)[C@@H](N2C(=O)c3ccccc3C2=O)[C@H]1COS(C)(=O)=O` displayed a melting point of 51 to 55 °C.

Compound `C=C(C)c1ccccc1N1CCN(C(=O)Nc2cc(C)c(C)nc2OC)CC1` came in with a melting point of 139 to 140 °C.

For the compound `Clc1ccc(Cc2cccnn2)c(Cl)c1`, the melting point lay in the range of 67 to 69 °C.

`Cn1c(C(F)(F)F)cc(=O)n(C(c2ccc3c(c2)C(=O)NC3=O)c2nsc3ccccc23)c1=O` (centres undefined) showed a melting point of 204 to 208 °C.

In turn, `CC(C)c1nc(C(C)(C)C)cc(-c2ccc(F)cc2)c1CO` displayed a melting point of 112 to 113 °C.

Turning to `C1=CC(n2c(-c3ccc4c(c3)OCO4)nc3ccccc32)CCC1` (centres undefined), the melting point lay in the range of 119 to 120 °C.

In the case of `CC(c1cccnc1)C(O)(Cn1cncn1)c1ccc(F)cc1F` (centres undefined), the melting point fell in the range of 113 to 114 °C.

For the compound `N#Cc1cc(-c2ccccc2)[nH]c1Sc1ccccc1N`, the melting point was in the range of 159 to 160 °C.

In turn, `O=[N+]([O-])c1ccccc1-c1cnoc1` returned a melting point of 51 to 54 °C.

Compound `Cc1nnc(COc2ccc(OCC(C)Oc3ccccn3)cc2)s1` (centres undefined) returned a melting point of 72 to 78 °C.

Regarding `O=C(Nc1ccccc1C(=O)NCCc1ncc[nH]1)c1ccc(-c2ccccc2)cc1`, the melting point lay in the range of 197 to 201 °C.

The compound `C=Cc1ccc(OC(C)C)c(OCCN2C(=O)c3ccccc3C2=O)c1` came in with a melting point of 78 °C.

With `COc1ccc(C2CNCc3c2ccc(OC)c3C)cc1OC` (centres undefined), the melting point was in the range of 128 to 129 °C.

In the case of `COc1ccc(-c2cc(C)cn2-c2ccc(S(N)(=O)=O)cc2)cc1C`, the melting point lay in the range of 149 to 151 °C.

As for `CSc1nc(NC(=O)C2([N+](=O)[O-])C=CC=CC2S(N)(=O)=O)nn1C` (centres undefined), the melting point lay in the range of 210 to 213 °C.

For the compound `CC(C(=O)O)=C(NC(=O)C(F)(F)F)c1ccccc1`, the melting point is 140 °C.

As for `CC(=O)NCCOc1ccc(-c2ccc(=O)n(Cc3ccc(Cl)cc3F)c2)cc1`, the melting point amounted to 153 °C.

Compound `Cc1cnc(-c2ccc(Cl)s2)nc1Cl` came in with a melting point of 137 °C.

As for `CCOC(=O)c1cc(Br)cc2c(=O)cc(-c3cccc(OCc4ncc5ccccc5n4)c3)oc12`, the melting point was determined as 246 °C.

For `CCOC(=O)NC(=S)Nc1ccc(Br)cn1`, the melting point was in the range of 159 to 161 °C.

`Cc1nc(/C=C/c2ccccc2)no1`: the melting point was 166 to 168 °C.

In turn, `N#CCc1cc(Cl)cc(Cc2nc3c(F)c(F)cc(F)c3s2)c1` came in with a melting point of 114 to 117 °C.

Regarding `CCOC(=O)c1ncn2c1CN=C(c1ccccc1F)c1cc(Br)ccc1-2`, the melting point was in the range of 200 to 202 °C.

Compound `N#CCCCC(N)=NO` displayed a melting point of 99.5 to 101 °C.

On to `CCOC(=O)/C(=C\Nc1cc(C)cc(C)c1)c1ccc(OC)cc1`, for which the melting point is 93 to 94 °C.

`C#CCOc1ccc(/C=C/c2nc3ccccc3c(=O)o2)cc1OC` displayed a melting point of 177 to 178 °C.

In turn, `CS(=O)(=O)c1ccc(C(O)c2ccc3ccccc3c2)cc1` (centres undefined) yielded a melting point of 100 °C.

In turn, `COc1cccc(Sc2ccnc(Nc3cccc(CN)c3)n2)c1` showed a melting point of 120 to 121 °C.

As for `C#Cc1cn(-c2c(Cl)cc(C(F)(F)F)cc2Cl)nc1C(F)(F)F`, the melting point lay within 95 to 98 °C.

For the compound `CC1(C)C2C(=O)OC(C(Br)(Br)Br)C21` (centres undefined), the melting point is 101 to 103 °C.

The compound `CCCCOCCOc1ccc(-c2ccc3c(c2)C=C(C(=O)Nc2ccc(CCCn4cnnc4)cc2)CCN3CCC)cc1` had a melting point of 191 to 194 °C.

With `CCCCN1CCSC1S(=O)(=O)N=NC(=O)Nc1nc(OC)cc(OC)n1` (centres undefined), the melting point fell in the range of 139 to 140 °C.

Turning to `O=C(Nc1ccc(-c2ccccc2)cc1C(=O)O)OCc1cc2cc(-c3ccccc3)ccc2o1`, the melting point was found to be 226 °C.

The compound `Cn1c(C2CC2)nc2c(O)c(C(=O)[C@H](O)[C@@H](O)c3ccccc3)ccc21` yielded a melting point of 156 °C.

Consider `COc1ccc(C=O)cc1OCC(F)F`, for which the melting point was 66 to 68 °C.

In the case of `CCc1cccc(CCC(O)c2ccccc2)c1NC(=O)CC1c2ccccc2Oc2ccccc21` (centres undefined), the melting point fell in the range of 192 to 193 °C.

`O=S(=O)(CC(F)(F)F)Nc1ccc(N2CCN(c3ccc(OCC(O)(Cn4cncn4)c4ccc(Cl)cc4Cl)cc3)CC2)cc1` (centres undefined) came in with a melting point of 74 to 75 °C.

`CCCCCC(=O)Nc1nc2c(ncn2CCC(CO)CO)c(=O)[nH]1` yielded a melting point of 86 to 88 °C.

On to `Cc1nnc2cc(C(=O)O)cc(Cl)n12`, for which the melting point fell in the range of 259 to 260 °C.

The compound `CCCCCCCCOc1cc(OC)ccc1O` showed a melting point of 36 to 38 °C.

Take `COc1ccc2[nH]ccc2c1Cl`: the melting point lay within 112 to 113 °C.

`CC(=O)c1ccc(-c2cccc(-c3nc(C(C)C)[nH]c3-c3cccc(C)n3)c2)cc1` returned a melting point of 84 to 87 °C.

Compound `CCCN1CC(c2ccc(F)cc2)=C(c2ccc(S(C)(=O)=O)cc2)C1=O` yielded a melting point of 150 to 152 °C.

As for `CNc1nc2ccc(Cc3ccccn3)cc2s1`, the melting point lay in the range of 118 to 121 °C.

For `COC(=O)c1ccc(NC(C)=O)c(CO)c1`, the melting point was 60 °C.
